# Experimental data: US8853219B2, “Compounds and compositions for cognition-enhancement, methods of making, and methods of treating” (NeuroSolis, Inc., priority 2010, dated 2014)
# How the values were obtained:
# [1] = test system: pooled male human liver microsomes; test: Metabolism by human liver microsomes; type: in vitro ADME; settings: 6 hours incubation
# Description: (§1) Compounds were incubated with pooled male human liver microsomes (BD Biosciences, #452172) and an NADP-regenerating system in a phosphate buffer (pH 7.4) for a total of 6 hours. Aliquots were removed every 2 hours, and 1% formic acid was added to halt the reaction. Samples were centrifuged, filtered through 0.2 micron spinfilter and the amount of each compound in the supernatants was quantitated using LC/MS/MS.
# [2] = test system: pooled male Sprague-Dawley rat liver microsomes; test: Metabolism by rat liver microsomes; type: in vitro ADME; settings: 6 hours incubation
# Description: as §1, with “Sprague-Dawley rat” for “human”, “#452501)” for “#452172)”
# [3] = biological target: T1, human muscarinic M1 receptors (Homo sapiens, UniProt P11229); test: Stimulation of inositol phosphate production in A9L cells, human M1 (IPOne TR-FRET); type: cell-based; settings: huM1/A9L versus huM3/A9L
# T1 construct: host or cells: A9L cells
# T1 sequence (P11229 1-460): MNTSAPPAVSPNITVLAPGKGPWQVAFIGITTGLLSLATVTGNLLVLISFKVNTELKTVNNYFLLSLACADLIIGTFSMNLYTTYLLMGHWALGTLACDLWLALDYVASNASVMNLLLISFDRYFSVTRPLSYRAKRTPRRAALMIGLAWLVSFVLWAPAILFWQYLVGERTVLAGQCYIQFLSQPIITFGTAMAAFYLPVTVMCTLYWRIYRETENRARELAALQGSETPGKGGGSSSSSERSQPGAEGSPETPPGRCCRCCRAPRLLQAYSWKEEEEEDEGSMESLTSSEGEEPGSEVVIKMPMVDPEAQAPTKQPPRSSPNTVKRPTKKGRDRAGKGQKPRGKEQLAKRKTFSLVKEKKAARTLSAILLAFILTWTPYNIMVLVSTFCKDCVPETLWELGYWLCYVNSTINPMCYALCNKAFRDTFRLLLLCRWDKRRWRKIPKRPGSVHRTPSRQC
# [4] = Blood and brain concentrations (rats) after oral gavage; type: in vivo, rat; settings: rat brain, 10 mg/kg po, 1 hr, relative to MCD-386
# Description: Long-Evans Hooded rats (Charles River: male, 250-350 g) were dosed with solutions of test compounds in PBS by oral gavage. At the desired time after dosing, the animals were anesthetized with isoflurane, and then euthanized by cervical dislocation. Blood was obtained by cardiac puncture, transferred to a 1.5 mL microcentrifuge tube containing 15U Heparin, and the plasma recovered after centrifugation. Brains were dissected, weighed, immediately chilled to 4° C., and homogenized using a PowerGen 125 homogenizer in five volumes of ice-cold 2% formic acid. Proteins were precipitated from plasma and brain homogenate with two and five volumes respectively of ice-cold 2% formic acid and clarified by centrifugation. The supernatant was ultra-filtered by centrifugation through a 3K MWCO spin column (Pall Life Sciences), following the manufacturer's instructions. The concentration of compound in the ultra-filtrate was subjected to reverse-phase liquid chromatography using a 150×2.1 mm Agilent C8 reverse-phase column on a Shimadzu Prominence LC, eluting the compounds with a gradient of 2% to 50% of acetonitrile+0.1% formic acid for compound MI-50,382, or an isocratic flow of 2% acetonitrile+0.1% formic acid for the rest of the compounds listed. The concentration of the compound in the column effluent was measured using an Applied Biosystems API-3200 triple quadrupole mass spectrometer equipped with an electrospray sample injection system. The counts of the characteristic parent and product ions of each test compound were converted to concentration units by comparison with a standard calibration curve.
# [5] = Delivery of MCD-386 in rats by iontophoresis patch versus oral gavage: plasma concentration; type: in vivo; settings: rat
# Description: Two patches were made up, consisting (in order from the outer layer to the skin contacting surface, respectively): adhesive tape (Transpore, 27 mm wide, 3M), circular stainless steel electrodes (22 mm dia) with a central hole for a stainless steel machine screw to which the electrode wire was attached, and 2 layers of 3mM CHR filter paper (Cat #3030-861, Whatman International, Ltd).
# The mid-dorsal area of a Long Evans Hooded rat (approximate weight, 320 grams), surgically prepared with a jugular vein catheter (Charles River), was shaved and the skin was then cleaned using an Electrode Prep Pad (Professional Disposables, Inc, Cat #B59800). […]
# Blood (400 μl) was withdrawn from the catheters in each rat every 30 minutes, transferred to 1.5 ml centrifuge tubes containing heparin (15 units/tube), and the plasma was separated by centrifugation from the cellular components. The plasma samples were maintained at 4 deg C. until analyzed. […]
# The ultra-filtrates were subjected to reverse-phase liquid chromatography using a 150×2.1 mm Agilent C8 reverse-phase column on a Shimadzu Prominence LC, eluting the MCD-386 with an isocratic flow of 2% acetonitrile+0.1% formic acid. The concentration of MCD-386 in the column effluent was measured using an Applied Biosystems API-3200 triple quadrupole mass spectrometer equipped with a Turbo V source (electrospray sample injection) system. […]
Metabolism in human liver microsomes [1],Metabolism in rat liver microsomes [2],PAMPA units (PAMPA test),Brain Cmax (10 mg/kg po) 1 hr MCD-386 = 1.00 [4],Bioavailability by transdermal delivery versus oral administration [5],Structure (SMILES),Selectivity for M1 versus M3 receptors [3]
nearly completely metabolized,nearly completely metabolized,12.75,–,–,"Cc1noc(C2=CCCN(C)C2)n1 [Compound 36, 3-methyl-5-(1-methyl-1,2,5,6-tetrahydropyridin-3-yl)-1,2,4-oxadiazole, reference compound]",some selectivity for M1 versus M3 receptors
–,–,0.05,1.00,up to three times higher,"CCc1noc(C2CN=CNC2)n1 (stereo not shown) [MCD-386, 5-(3-ethyl-1,2,4-oxadiazol-5-yl)-1,4,5,6-tetrahydropyrimidine]",–
